Test results published in US6528043B2, “Composition containing sapogenin” (L'Oreal, priority 1999, dated 2003).

Assay: Maximum amount of diosgenin which can be dissolved at 50° C. (procedure repeated, varying the amount of diosgenin)
Type: physicochemical
Experimental: The above compositions were prepared in the following way. 100 mg of diosgenin were weighed out and placed in a hermetic pillbox, to which 4.9 g of the solvent(s) were added with magnetic stirring at 25° C. for not more than one hour. In the event that the diosgenin was not dissolved after one hour, the suspension was heated with stirring to 50° C. on a waterbath and then, in the absence of dissolution of the diosgenin after one hour at this temperature, the temperature of the suspension was raised to 70° C.
The above procedure was repeated, varying the amount of diosgenin placed in solution. It was thus shown that the maximum amount of diosgenin which can be dissolved at 50° C. in the mixture of solvents was 2%, whereas it was only 1% in each of the solvents taken individually.
The above procedure was repeated, varying the amount of diosgenin placed in solution. It was thus shown that the maximum amount of diosgenin which can be dissolved at 50° C. in the mixture of solvents was 4%, whereas it was only 1% in each of the solvents taken individually.
The above procedure was repeated, varying the amount of diosgenin placed in solution. It was thus shown that the maximum amount of diosgenin which can be dissolved at 50° C. in the mixture of solvents was 3%, whereas it was only 1% in each of the solvents taken individually.
The amount of diosgenin placed in solution was then varied. It was thus shown that the maximum amount of diosgenin which can be dissolved at 50° C. in the mixture of solvents was 3%, whereas it was only 1% in the ester and 2% in the UV screening agent.

- maximum amount of diosgenin which can be dissolved (50/50 mixture of isononyl isononanoate and hexyldecanol): 3%
- maximum amount of diosgenin which can be dissolved (50/50 mixture of isononyl isononanoate and octyl methoxycinnamate): 3%
- maximum amount of diosgenin which can be dissolved (50/50 mixture of isopropyl myristate and hexyldecanol): 4%
- maximum amount of diosgenin which can be dissolved (50/50 mixture of triglyceryl triisostearate and hexyldecanol): 2%
- maximum amount of diosgenin which can be dissolved (hexyldecanol taken individually): 1%
- maximum amount of diosgenin which can be dissolved (isononyl isononanoate (ester) alone): 1%
- maximum amount of diosgenin which can be dissolved (isopropyl myristate taken individually): 1%
- maximum amount of diosgenin which can be dissolved (octyl methoxycinnamate (UV screening agent) alone): 2%
- maximum amount of diosgenin which can be dissolved (triglyceryl triisostearate taken individually): 1%
SMILES: C[C@@H]1CC[C@@]2(OC1)O[C@H]1C[C@H]3[C@@H]4CC=C5C[C@@H](O)CC[C@]5(C)[C@H]4CC[C@]3(C)[C@H]1[C@@H]2C [diosgenin, spirost-5-en-3-beta-ol]
